Source: the NIST ThermoML archive (doi:10.1016/j.jct.2006.07.021)

Experiment: xn = mol fraction of the nth substance listed
Conditions: 101 kPa, Liquid, Pycnometric method

OCCO [1,2-ethanediol] + NC=O
x2 = 0
Conditions	mass density [kg/m3]
293.15 K	1113.57
303.15 K	1106.51
313.15 K	1099.45

NC=O [formamide] + CC(O)CO
mass density [kg/m3]
Conditions	293.15 K	298.15 K	303.15 K	308.15 K	313.15 K	318.15 K
x1 = 0.0567	1038.29	1034.56	1030.82	1027.12	1023.41	1019.67
x1 = 0.1191	1040.52	1036.78	1033.03	1029.25	1025.52	1021.77
x1 = 0.1881	1043.47	1039.69	1035.91	1032.11	1028.33	1024.51
x1 = 0.2649	1047.35	1043.5	1039.65	1035.85	1032.01	1028.19
x1 = 0.3409	1051.67	1047.79	1043.96	1040.09	1036.22	1032.37
x1 = 0.3904	1054.79	1050.91	1047.02	1043.15	1039.28	1035.44
x1 = 0.4478	1058.92	1055.02	1051.08	1047.15	1043.24	1039.31
x1 = 0.4936	1062.42	1058.49	1054.56	1050.68	1046.76	1042.86
x1 = 0.5578	1068.01	1064.07	1060.1	1056.12	1052.18	1048.22
x1 = 0.6262	1074.52	1070.55	1066.6	1062.64	1058.66	1054.73
x1 = 0.6838	1080.96	1076.95	1072.95	1068.91	1064.9	1060.87
x1 = 0.7544	1089.83	1085.77	1081.67	1077.58	1073.51	1069.44
x1 = 0.8295	1100.75	1096.63	1092.5	1088.36	1084.26	1080.16
x1 = 0.8818	1109.7	1105.53	1101.4	1097.27	1093.1	1088.94
x1 = 0.9392	1120.57	1116.44	1112.31	1108.16	1104.04	1099.88
x1 = 1	1133	1129	1125	1121	1117	1113

NC=O [formamide] + CCO
mass density [kg/m3]
Conditions	293.15 K	298.15 K	303.15 K	308.15 K	313.15 K	318.15 K
x1 = 0.0698	807.47	803.3	799.14	794.94	790.75	786.59
x1 = 0.1412	826.72	822.6	818.49	814.41	810.28	806.17
x1 = 0.2032	844.13	840.06	835.99	831.94	827.87	823.84
x1 = 0.268	862.91	858.91	854.91	850.86	846.85	842.82
x1 = 0.3234	879.65	875.69	871.68	867.71	863.74	859.75
x1 = 0.3874	899.52	895.58	891.65	887.7	883.75	879.8
x1 = 0.4365	915.29	911.35	907.45	903.54	899.61	895.7
x1 = 0.4962	935.06	931.19	927.32	923.4	919.52	915.62
x1 = 0.5423	950.83	946.93	943.06	939.2	935.3	931.42
x1 = 0.5958	969.63	965.8	961.95	958.11	954.29	950.42
x1 = 0.6456	987.65	983.82	979.98	976.18	972.35	968.54
x1 = 0.708	1010.93	1007.05	1003.21	999.36	995.49	991.62
x1 = 0.7748	1036.9	1033.01	1029.13	1025.26	1021.35	1017.44
x1 = 0.8532	1068.57	1064.68	1060.75	1056.82	1052.93	1049.03
x1 = 0.9282	1100.66	1096.71	1092.76	1088.83	1084.87	1080.95
x1 = 1	1133	1129	1125	1121	1117	1113
